From publication PMC3006138, “Fexinidazole – A New Oral Nitroimidazole Drug Candidate Entering Clinical Development for the Treatment of Sleeping Sickness” (PLoS Neglected Tropical Diseases, 2010)
“And” between values parts separate entries of the source, which are not always exact repeats. Equal entries are not always repeated. Where two headings read alike, the source gives them in different places. Blank lines part the entries; values can stand above or below the molecule they belong to.

Key:
[1] = Dog single-dose IV and oral pharmacokinetics; assay type: in vivo; conditions: for AUC(0-t): read-out: AUC0-t(last); for half-life: read-out: t1/2,z (converted)
Experimental: Pharmacokinetic Report for the study No. 0320-2007
Fexinidazole was given as IV and oral administrations to male Beagle dogs according to the […]
Dog ID Route Dose Formulation
IV dose was administered via the radial vein, the oral dose was administered by gastric […]
gavage. A washout period of […] was allowed between the IV (Day 1) and oral (Day 12) […]
4.2. Sample Collection and Handling
Blood was withdrawn from jugular vein and collected in heparinized plastic tubes kept on an […]
ice/water bath, then centrifuged at 1200g for 10 minutes at 4°C. Three aliquots of the […]
separated plasma (about 0.2 mL) was stored at -80°C until analysis for Fexinidazole and its […]
sulphone and sulphoxide metabolites. Blood was taken at pre-dose and 0.083 (5 minutes), […]
4.3. Bioanalytical Method
Plasma concentrations of Fexinidazole and its sulphone and sulphoxide metabolites were […]
determined by LC-MS-MS method following plasma protein precipitation. The lower limit […]
of quantification of the bioanalytical method was 5 ng/mL for all analytes. Bioanalytical data […]
Details of the bioanalytical method used are reported in Appendix 2 and analytical […]
performances of calibration standards are reported in Appendix 3.
4.4. Pharmacokinetic Calculations
Pharmacokinetic evaluations of Fexinidazole and sulphone and sulphoxide metabolites were […]
For the calculations, the pre-dose concentrations of Fexinidazole were set equal to C0.083 […]
after IV administration, whilst the pre-dose concentrations of Fexinidazole after oral […]
administration and the pre-dose concentrations of the metabolites after both doses were set […]
Nerviano Medical Sciences
After IV and oral dosing, Cmax (C0.083 for Fexinidazole after IV dosing) and tmax of each […]
concentration. After both doses, for each compound, the area under plasma concentration vs. […]
last detectable concentration. The half-life of the terminal phase, t1/2,z, was determined by […]
linear regression analysis of the natural-log concentration vs. time curve, where t1/2,z = […]
ln(2)/slope of the regression line. […]
infinite time, AUC0-∞, was determined as
AUC0- ∞ = AUC0 − t(last) + Ct(last)⋅ […]
The fraction of AUC0-∞ accounted for by the extrapolated area under the curve was […]
%EXTt (last)− 0∞=100⋅AUCt(last)−∞
After IV dosing, plasma clearance and volume of distribution at steady state of Fexinidazole […]
were calculated as follows:
Vss = CL⋅MRT, where MRT is the mean residence time.
Absolute bioavailability of Fexinidazole was calculated from the ratio of individual oral to […]
IV dose-normalized AUC0-t(last) and AUC0-∞ values.
After both doses, Cmax and AUC values of each compound were also normalized to a 1 […]
pharmacokinetic parameters sorted by compound and route of dosing.
Plasma concentrations and pharmacokinetic parameters of each compound were reported to […]
three significant figures.
5.1.1. Clinical and Physical Examinations
Individual clinical signs are reported in Appendix 4. […]
treatments with Fexinidazole. No meaningful clinical signs were recorded during wash out

L-6 rat myoblast cells = assay: Cytotoxicity assay; assay type: cell-based; conditions: 72 h, read-out: IC50
Experimental: (§1) 10 µL of Alamar Blue was added for the final 3 h to determine viability. […] The IC50 values were calculated from the sigmoidal inhibition curves. For cytotoxicity, 4×10^4/mL L-6 rat skeletal myoblast cells were used, and incubations and assessments carried out as above.

[2] = Mouse brain concentrations; assay type: in vivo; conditions: for concentration at 5 min / concentration at 30 min / concentration at 60 min / Kp at 5 min / Kp at 30 min / Kp at 60 min / concentration at 15 min / Kp at 15 min: female, NMRI, mouse; for Kp at 5 min / Kp at 30 min / Kp at 60 min / Kp at 15 min: read-out: Mean plasma:brain ratio (plasma = 1.00)
Experimental: Following sacrifice, the cranium of mice was opened and the brain removed. Excess blood was washed from the brain with distilled water and any excess fluid blotted on absorbent paper. The brain was then snap frozen using liquid nitrogen and placed into a suitably labelled container and stored at approximately −70°C, pending analysis. Brains were homogenized and extracted samples were prepared appropriately for analysis via liquid chromatography-mass spectrometry (LC-MS).
BioDynamics Study No: DND/01
Two groups of female mice were dosed as follows:
Number Treatment Dose (mg/kg) Route
All doses are expressed as free base
Intravenous doses were administered into a lateral tail vein using an appropriately sized syringe and 25G needle and the oral formulation by oral gavage using a polypropylene gavage tube. All doses were given as a single bolus dose at a constant dose volume of 10.0 mL/kg.
1.6 Blood sample collection
At each sampling time point, three animals in each treatment group were deeply anaesthetised using isoflurane and blood samples (approximately 1 mL) taken into individual heparinised tubes by cardiac puncture, following which the animals were killed by cervical fracture. Samples were collected at the following times post-dose:
Following collection, the blood samples were centrifuged (approximately 10000 g, 2 min at 4 °C) and the plasma retained as one aliquot at approximately -70°C prior to analysis of test material concentrations at BioDynamics by LC-MS/MS.
1.7 Collection of terminal brain samples
Following collection of the terminal blood sample the cranium of each mouse was carefully opened and the brain removed. Excess blood was washed from the brain with distilled water and any excess fluid blotted on absorbent paper. The brain was then snap frozen using liquid nitrogen and placed into a suitably labelled container and stored frozen at approximately -70°C pending analysis.
All of the plasma samples together with the brains from the 15 minute time point were analysed for concentrations of the test material and its sulfone and sulfoxide metabolites. In addition the brains from the 5 and 30 minute time points for the intravenously treated and the 30 and 60 minute time points for the orally treated animals were analysed for concentrations of Fexinidazole and its sulfone and sulfoxide metabolites using an LC-MS/MS method developed at BioDynamics.
All samples were treated as temperature sensitive. Blood samples were collected onto wet ice, followed by centrifugation at 4 °C. Plasma and brain samples were snap frozen on dry ice (plasma) or liquid nitrogen (brains) prior to long term storage at less than -70 °C pending analysis.

[3] = Mouse pharmacokinetics after 5-day oral dosing
Experimental: The study was conducted according to the study protocol [1].
gavage daily for 5 consecutive days at a dose of 200 mg/kg in a 5 % tween 80/ 0.5 %
Formulation Preparation and Concentration Check
were prepared according to the procedure already developed [2]; a sufficient volume of each
suspension was prepared in order to support the 5-day repeated oral administration. The
suspensions were stored at +4°C. The supportive stability data for the Fexinidazole
suspension after 7 days at +4°C was performed.
a specific, not validated, HPLC-UV method [2]. Three samples were analyzed for each
About 0.05-0.07 mL of blood/sampling time were taken from the saphenous vein using
heparinized tubes (pre-cooled in an ice/water bath) and were centrifuged at 10000g for 3
minutes at 4°C. The separated plasma was stored at -80°C until analysis. Blood was taken at
validated LC-MS-MS methods.
Pharmacokinetic evaluation was carried out using a non-compartmental approach with the
aid of the Watson package (v. 6.4.0.04, Thermo Fisher Scientific, Waltham, MA, USA).
For the calculations, pre-dose concentrations of both compounds were set equal to zero.
After both compounds, on Day 5, Cmax and tmax were read from the raw plasma data as the
coordinates of the highest measured concentration. The area under plasma concentration vs.
time curve to finite time, AUC0-t(last), was determined by the linear trapezoidal rule up to the
Descriptive statistics (mean ± SD, %CV) were reported for plasma concentrations and
pharmacokinetic parameters sorted by compound.
reported to three significant figures.
Plasma concentrations of sulphoxide and sulphone Fexinidazole metabolites were determined
by a LC-MS-MS method. The lower limit of the bioanalytical method was 5 ng/mL (run 1)
(v. 6.4.0.04, Thermo Fisher Scientific, Waltham, MA, USA).
Pharmacokinetic evaluations of the sulphone and sulphoxide metabolites were carried out
using non-compartmental approach with the aid of the Watson package (v. 6.4.0.04, Thermo
Fisher Scientific, Waltham, MA, USA).
After both doses, for the calculations, the pre-dose concentrations of the metabolites were set
Cmax and tmax were read from raw data as the coordinates of the highest measured

[4] = tested on: T. b. rhodesiense (STIB 900); assay: In vitro trypanocidal assay (Alamar Blue); assay type: cell-based, Trypanosoma brucei rhodesiense; conditions: Trypanosoma brucei, 72 h; read-out: IC50
Experimental: as §1

[5] = dog, plasma, fexinidazole 1 mg/kg IV, male Beagle dogs, read-out: Cmax (C0.083 for parent)
[6] = male, Beagle, dog, plasma, fexinidazole 1 mg/kg IV
[7] = male, Beagle, dog, plasma, fexinidazole 10 mg/kg oral
[8] = male, Beagle, dog, plasma, fexinidazole 10 mg/kg oral, read-out: Cmax
[9] = brain homogenate, intravenous, 1 mg/kg, fexinidazole 1 mg/kg iv, read-out: Brain homogenate concentration
[10] = brain homogenate, intravenous, 1 mg/kg, fexinidazole 1 mg/kg iv, 30 min, read-out: Brain homogenate concentration
[11] = brain homogenate, oral, 25 mg/kg, fexinidazole 25 mg/kg po, 60 min, read-out: Brain homogenate concentration
[12] = brain, intravenous, 1 mg/kg, fexinidazole 1 mg/kg iv, read-out: Brain concentration
[13] = brain, intravenous, 1 mg/kg, fexinidazole 1 mg/kg iv, 30 min, read-out: Brain concentration
[14] = brain, oral, 25 mg/kg, fexinidazole 25 mg/kg po, 30 min, read-out: Brain concentration
[15] = brain, oral, 25 mg/kg, fexinidazole 25 mg/kg po, 30 min, read-out: Brain homogenate concentration
[16] = brain, oral, 25 mg/kg, fexinidazole 25 mg/kg po, 60 min, read-out: Brain concentration
[17] = fexinidazole 25 mg/kg po, 30 min
[18] = fexinidazole 25 mg/kg po, 60 min
[19] = fexinidazole 200 mg/kg/day po, Day 5
[20] = male, NMRI, mouse, plasma, po, 200 mg/kg/day
[21] = dog, oral 10 mg/kg vs IV 1 mg/kg

- Cmax [1, 5]: 763 ± 45.3 ng/mL
- AUC(0-inf) [1, 6]: 1520 ± 208 ng·h/mL
- Tmax [1, 6]: 0.194 h
- AUC(0-t) [1, 6]: 1480 ± 197 ng·h/mL
- half-life [1, 6]: 1.16 h
- AUC(0-inf) [1, 7]: 8780 ± 895 ng·h/mL
- Tmax [1, 7]: 1.17 h
- AUC(0-t) [1, 7]: 8560 ± 767 ng·h/mL
- Cmax [1, 8]: 1900 ± 186 ng/mL
- half-life [1, 7]: 5.72 h
- concentration at 5 min [2, 9]: 39.9 ng/mL
- concentration at 30 min [2, 10]: 57.6 ng/mL
- concentration at 60 min [2, 11]: 1620 ng/mL
- concentration at 5 min [2, 12]: 120 ng/g
- concentration at 30 min [2, 13]: 173 ng/g
- concentration at 30 min [2, 14]: 3310 ng/g
- concentration at 30 min [2, 15]: 1100 ng/mL
- concentration at 60 min [2, 16]: 4870 ng/g
- Kp at 5 min ([2]; brain, iv 1 mg/kg): 0.045
- Kp at 30 min ([2]; brain, iv 1 mg/kg, 30 min): 0.064
- Kp at 30 min ([2]; brain, po 25 mg/kg, 30 min): 0.078
- Kp at 60 min ([2]; brain, po 25 mg/kg, 60 min): 0.12
- Brain concentration [2, 17]: 3315 ± 1611 ng/g
- Brain concentration [2, 18]: 4873 ± 2335 ng/g
- AUC0-tlast [3, 19]: 161000 ng·h/mL
- AUC0-∞ [3, 19]: 197000 ng·h/mL
- Cmax [3, 20]: 33600 ng/mL
- Tmax [3, 20]: 0.833 h
- half-life [3, 20]: 4.31 h
Compound: Cn1c([N+](=O)[O-])cnc1COc1ccc([S+](C)[O-])cc1 (stereo not drawn) [Fexinidazole sulfoxide]
- IC50 (L-6 rat myoblast cells): > 90 µg/mL and > 305 µM
- IC50 [4]: 0.41 µg/mL to 0.49 µg/mL and 1.33 µM to 1.65 µM

Compound: CSc1ccc(OCc2ncc([N+](=O)[O-])n2C)cc1 [Fexinidazole, 1-methyl-2-((p-(methylthio)phenoxy)methyl)-5-nitroimidazole]
- clinical signs ([1]; 1 mg/kg IV and 10 mg/kg oral): No significant treatment related clinical signs
- F% AUC0-t(last) [1, 21]: 10% and 9.60 ±4.32%
- F% AUC0-∞ [1, 21]: 14.1%
- Cmax [1, 5]: 320 ± 136 ng/mL
- clearance ([1]; male, Beagle, dog, plasma, 1 mg/kg IV): 273 mL/min/kg
- Vd ([1]; male, Beagle, dog, plasma, 1 mg/kg IV, read-out: Vss): 3.26 L/kg
- AUC(0-inf) [1, 6]: 70.6 ± 33.8 ng·h/mL
- AUC(0-t) [1, 6]: 66.9 ± 31.8 ng·h/mL
- half-life [1, 6]: 0.406 h
- AUC(0-inf) [1, 7]: 85.3 ± 1.27 ng·h/mL
- Tmax [1, 7]: 0.667 h
- AUC(0-t) [1, 7]: 57.2 ± 13.4 ng·h/mL
- Cmax [1, 8]: 24.2 ± 5.86 ng/mL
- half-life [1, 7]: 1.93 h
- IC50 (L-6 rat myoblast cells): > 90 µg/mL and > 322 µM
- concentration at 5 min [2, 9]: 92.5 ng/mL
- concentration at 15 min ([2]; brain homogenate, intravenous, 1 mg/kg, fexinidazole 1 mg/kg iv, 15 min, read-out: Brain homogenate concentration): 21.3 ng/mL
- concentration at 30 min [2, 10]: 12.1 ng/mL
- concentration at 15 min ([2]; brain homogenate, oral, 25 mg/kg, fexinidazole 25 mg/kg po, 15 min, read-out: Brain homogenate concentration): 379 ng/mL
- concentration at 60 min [2, 11]: 254 ng/mL
- concentration at 5 min [2, 12]: 277 ng/g
- concentration at 15 min ([2]; brain, intravenous, 1 mg/kg, fexinidazole 1 mg/kg iv, 15 min, read-out: Brain concentration): 63.8 ng/g
- concentration at 30 min [2, 13]: 36.2 ng/g
- concentration at 15 min ([2]; brain, oral, 25 mg/kg, fexinidazole 25 mg/kg po, 15 min, read-out: Brain concentration): 1140 ng/g
- concentration at 30 min [2, 14]: 800 ng/g
- concentration at 30 min [2, 15]: 266 ng/mL
- concentration at 60 min [2, 16]: 763 ng/g
- Kp at 5 min ([2]; brain, iv 1 mg/kg): 0.56
- Kp at 15 min ([2]; brain, iv 1 mg/kg, 15 min): 0.76
- Kp at 30 min ([2]; brain, iv 1 mg/kg, 30 min): 1.03
- Kp at 15 min ([2]; brain, po 25 mg/kg, 15 min): 0.76
- Kp at 30 min ([2]; brain, po 25 mg/kg, 30 min): 1.16
- Kp at 60 min ([2]; brain, po 25 mg/kg, 60 min): 1.22
- Brain concentration ([2]; fexinidazole 25 mg/kg po, 15 min): 1136 ± 54.1 ng/g
- Brain concentration [2, 17]: 800 ± 92.6 ng/g
- Brain concentration [2, 18]: 763 ± 90.7 ng/g
- AUC(0-t) [3, 20]: 1530 ± 348 ng·h/mL
- Cmax [3, 20]: 457 ± 179 ng/mL
- Tmax [3, 20]: 0.833 ± 0.289 h
- half-life [3, 20]: 2.76 ± 1.26 h
- IC50 [4]: 0.48 µg/mL to 0.82 µg/mL and 1.71 µM to 2.93 µM
